Results as given in ChEMBL document CHEMBL1147170, “Synthesis and biological evaluation of two glycerolipidic prodrugs of didanosine for direct lymphatic delivery against HIV” (Bioorg Med Chem Lett, 2007).

Tests used:
[1] = (§1) Cytotoxicity against phytohemagglutininin-activated human PBMC after 7 days by MTT assay; format: cell-based; conditions: phytohemagglutinin-activated PBMC, read-out: CD50
[2] = test system: PBMC; assay: as §1; format: cell-based; conditions: pbmc, 168 h
[3] = test system: Human immunodeficiency virus 1; assay: Antiviral activity against HIV1 LAI activity in phytohemagglutininin-activated human PBMC assessed as viral replication after 7 days; format: functional; conditions: for EC50: Human immunodeficiency virus 1, LAI, 168 h, read-out: ED50 (the source's name)

| EC50 [3] [µM] | SMILES | CC50 at 168 h [1] [µM] | CD90 [2] [µM] | ED90 [3] [µM] |
| --- | --- | --- | --- | --- |
| 28.5 | CCCCCCCCCCCCCCCC(=O)OCC(COC(=O)CCCCCCCCCCCCCCC)OC(=O)CCCCCOP(=O)(O)OC[C@@H]1CC[C@H](n2cnc3c(=O)[nH]cnc32)O1 | > 50 | > 50 | >50 |
| 1.2 | O=c1[nH]cnc2c1ncn2[C@H]1CC[C@@H](CO)O1 [DIDANOSINE] | 40 | > 50 | 4.8 |
| 2.8 | CCCCCCCCCCCCCCCC(=O)OCC(COC(=O)CCCCCCCCCCCCCCC)OC(=O)CCCC(=O)OC[C@@H]1CC[C@H](n2cnc3c(=O)[nH]cnc32)O1 | > 12 | > 12 | >12 |
